Residue numbers refer to the chain shown, from its start. Names may count otherwise.
Key:
Format in all cases: biochemical
[1] = target: T1, recombinant ABP-20 (Prunus persica, UniProt O04011, DUP151-151); test: NADH oxidase activity of IEF-purified recombinant ABP-20 (dNOX); conditions: for NADH oxidase activity: average of 3 determinations ± SD, None = 0.1 ± 0.08; for optimum concentration for activation: higher concentration less effective
T1 construct: made in house; host or cells: E. coli BL21 (DE3), pET11b
Protocol: (§1) Oxidation of NADH was determined spectrophotometrically from the disappearance of NADH measured at 340 nm in a reaction mixture containing 25 mM Tris-MES (pH 7.2), 100 μM GSH, 1 mM KCN to inhibit mitochondrial oxidase activity, 150 μM NADH and the enzyme at 37° C. with temperature control (±0.5° C.) and stirring. Prior to assay, 1 μM reduced glutathione was added to reduce the protein in the presence of substrate. After 10 min, 0.03% hydrogen peroxide was added to reoxidize the protein under renaturing conditions and in the presence of substrate to start the reaction. Activities were measured using paired Hitachi U3210 or paired SLM Aminco 2000 spectrophotometers both with continuous recording. Assays were run for 1 min and were repeated on the same sample at intervals of 1.5 min for the times indicated. An extinction coefficient of 6.22 cm^−1 mM^−1 was used to determine specific activity.
Cells were centrifuged at 5,000 g for 6 min. Pellets were then resuspended in 20 mM Tris-HCl, pH 8.0, containing 0.5 mM PMSF, 1 mM benzamidine and 1 mM 6-aminocaproic and lysed by three passages through a French pressure cell (SLM Aminco) at 20,000 psi. Expression of the recombinant ABP-20 of about 20 kDa was confirmed by SDS-PAGE with silver staining. Transformed cells were stored at −80° C. in a standard glycerol stock solution. The recombinant proteins were further purified on Criterion IEF gels (Bio-Rad, Hercules, Calif.). The IEF gel was cut into seven equal segments. The pH represented by each slice was based on IEF standards (Bio-Rad). The slices were soaked in 15 mM Tris-Mes buffer, pH 7, at 4° C. for overnight with shaking. The gel-free extracts were assayed for ENOX activities as follows: […]

[2] = system: dNOX of soybean; test: Stimulation of NOX activity of soybean plasma membranes (dNOX of soybean); conditions: 1 μM
[3] = system: recombinant Arabidopsis ENOX1; test: NADH oxidase activity of IEF-purified recombinant Arabidopsis ENOX1; conditions: for NADH oxidase activity: average of 3 determinations ± SD, None = 2.7 ± 0.4; for Effect on ENOX1 activity eluted from the IEF gel: concentrations of Table 5
Protocol: Cells were centrifuged at 5,000 g for 6 min. Pellets were then resuspended in 20 mM Tris-HCl, pH 8.0, containing 0.5 mM PMSF, 1 mM benzamidine and 1 mM 6-aminocaproic and lysed by three passages through a French pressure cell (SLM Aminco) at 20,000 psi. Expression of the recombinant Arabidopsis ENOX1 of about 14 kDa was confirmed by SDS-PAGE with silver staining. Transformed cells were stored at −80° C. in a standard glycerol stock solution. The Arabidopsis ENOX1 proteins were further purified on Criterion IEF gels (Bio-Rad, Hercules, Calif.). The IEF gel was cut into seven equal segments. The pH represented by each slice was based on IEF standards (Bio-Rad). The slices were soaked in 15 mM Tris-Mes buffer, pH 7, at 4° C. for overnight with shaking. The gel-free extracts were assayed for ENOX1 activity.
as §1
IEF purified ENOX1 was concentrated to 0.7 mg/ml by using a Centricon concentrator (Millipore Corporation, Danvers, Mass.) fitted with a 10,000 nominal molecular weight limit ultracel YM membrane. Samples (50 μl) were combined with 1 μl of trifluoroacetic acid (TFA) in the presence or absence of 15 μl 10 mM bathocuproine. After 2 h of incubation at room temperature, the samples were dialyzed (Spectra/Pro Dialysis membrane, molecular weight cut-off 6-8,000, Spectrum Laboratories (Rancho Dominguez, Calif.) against 20 mM Tris-HCl, pH 8, at 4° C. overnight.

[4] = system: dNOX (ABP-20); test: DTDP (protein disulfide-thiol) interchange of dNOX (ABP-20) site-directed mutants
Protocol: Protein disulfide-thiol interchange was determined spectrophotometrically from the increase in absorbance at 340 nm resulting from the cleavage of dithiodipyridine (DTDP (Morré, D. J., Gomez-Rey, M. L., Schramke, C., Em, O., Lawler, J., Hobeck, J. and Morré, D. M. 1999. Mol. Cell. Bochem. 200: 7-13). DTDP cleavage was buffered (50 mM Tris-MES, pH 7). The assay was preincubated (1 h at room temperature) with 0.5 μmoles 2,2′-dithiodipyridine (DTDP) in 5 μl of DMSO to react with endogenous reductants present with the plasma membranes. After 10 min, a further […] DTDP were added in 35 μl DMSO to start the reaction. The final reaction volume was […]. The reaction was monitored from the increase in absorbance at 340 nm. Specific activities were calculated using a milimolar absorption coefficient of 6.21.
(§2) Amino acids indicated were replaced by alanines by site-directed mutagenesis according to Braman et al. (Braman, J., Papworth, C. and Greener, A. 1996. Methods Mol. Biol. 57:32-44). Numbered amino acids and nucleotide positions of splice variant products refer to numbers assigned to amino acids of the full length transcript

[5] = system: dNOX (ABP-20); test: NADH oxidation of dNOX (ABP-20) site-directed mutants
Protocol: as §1, §2

O=C(O)COc1cccc(Cl)c1Cl [2,3-dichlorophenoxyacetic acid]
Effect on activity of recombinant ABP-20 [1]: without effect | NADH oxidase activity ([1]; addition 1 μM): 0.15 ± 0.01 µmol/min/mg

O=C(O)COc1ccc(Cl)cc1Cl [2,4-dichlorophenoxyacetic acid]
stimulation of NOX activity of soybean plasma membranes (dNOX) [2]: approximately two-fold | NADH oxidase activity ([3]; addition 1 μM): 3.7 ± 0.1 µmol/min/mg | Effect on ENOX1 activity eluted from the IEF gel [3]: without effect | average specific activity ([1]; 1 μM auxin, IEF-purified fractions): ~0.6±0.2 μmoles/min/mg protein | NADH oxidase activity ([1]; addition 1 μM): 0.8 ± 0.2 µmol/min/mg | optimum concentration for activation [1]: about 1 μM

COc1cc(CNC(=O)CCCC/C=C/C(C)C)ccc1O [Capsaicin]
NADH oxidase activity ([3]; addition 1 μM): 3.7 ± 0.1 µmol/min/mg | Effect on ENOX1 activity eluted from the IEF gel [3]: no inhibition was observed

N.N.[Cl][Pt][Cl] [Cis-platinum]
Effect on ENOX1 activity eluted from the IEF gel [3]: no inhibition was observed | NADH oxidase activity ([3]; inhibitor 100 μM): 3.5 ± 0.002 µmol/min/mg | Effect on activity of recombinant ABP-20 [1]: inhibited the activity | NADH oxidase activity ([1]; addition 1 μM): 0.2 ± 0.05 µmol/min/mg

COc1cccc2c1C(=O)c1c(O)c3c(c(O)c1C2=O)C[C@@](O)(C(=O)CO)C[C@@H]3O[C@H]1C[C@H](N)[C@H](O)[C@H](C)O1 [Doxorubicin]
Effect on activity of recombinant ABP-20 [1]: inhibited the activity | NADH oxidase activity ([1]; addition 1 μM): 0.2 ± 0.05 µmol/min/mg

O=C(O[C@@H]1Cc2c(O)cc(O)cc2O[C@@H]1c1cc(O)c(O)c(O)c1)c1cc(O)c(O)c(O)c1 [EGCg]
Effect on ENOX1 activity eluted from the IEF gel [3]: no inhibition was observed | NADH oxidase activity ([3]; inhibitor 500 μM): 3.9 ± 0.05 µmol/min/mg

O=C(O)c1cc(O)c(O)c(O)c1 [Gallic acid]
NADH oxidase activity ([3]; inhibitor 100 μM): 3.0 ± 0.5 µmol/min/mg

CC1=CC(=O)[C@@H](O)[C@]2(C)[C@H]3[C@@]4(O)OC[C@]35[C@H]([C@@H](C)[C@H]4O)[C@@H](O)C(=O)O[C@@H]5C[C@@H]12 [Glaucarubolone]
Effect on activity of recombinant ABP-20 [1]: inhibited the activity | NADH oxidase activity ([1]; addition 1 μM): 0.2 ± 0.06 µmol/min/mg

O=C(O)Cc1c[nH]c2ccccc12 [Indole-3-acetic acid]
NADH oxidase activity ([1]; addition 1 μM): 0.8 ± 0.05 µmol/min/mg | optimum concentration for activation [1]: about 1 μM

CC(=O)Nc1cc(NS(=O)(=O)C(F)(F)F)c(C)cc1C [Mefluidide, N-[2,4-Dimethyl-5-[[(trifluoromethyl)sulfonyl]amino]phenyl] acetamide]
Effect on ENOX1 activity eluted from the IEF gel [3]: inhibited | NADH oxidase activity ([3]; inhibitor 100 μM): 1.8 ± 0.15 µmol/min/mg

O=C(O)c1cc[c]([Hg][Cl])cc1 [PCMB]
Effect on activity of recombinant ABP-20 [1]: inhibited | NADH oxidase activity ([1]; addition 100 μM): 0.1 ± 0.05 µmol/min/mg

O=S(=O)(O)c1cc[c]([Hg][Cl])cc1 [PCMS]
Effect on activity of recombinant ABP-20 [1]: inhibited | NADH oxidase activity ([1]; addition 100 μM): 0.3 ± 0.2 µmol/min/mg

CC[C@@H](C)C(=O)O[C@H]1C(=O)O[C@@H]2C[C@H]3C(C)=CC(=O)[C@@H](O)[C@]3(C)[C@H]3[C@@H](O)[C@H](O)[C@]4(C)OC[C@]32[C@@H]14 [Simalikalactone D]
NADH oxidase activity ([3]; addition 1 μM): 0.9 ± 0.1 µmol/min/mg | Effect on ENOX1 activity eluted from the IEF gel [3]: inhibited | Effect on activity of recombinant ABP-20 [1]: without effect | NADH oxidase activity ([1]; addition 1 μM): 0.65 ± 0.07 µmol/min/mg

CCS(=O)(=O)c1nc2ccccn2c1S(=O)(=O)NC(=O)Nc1nc(OC)cc(OC)n1 [Sulfonsulfuron]
Effect on ENOX1 activity eluted from the IEF gel [3]: inhibited | NADH oxidase activity ([3]; inhibitor 100 μM): 1.2 ± 0.5 µmol/min/mg

OCCc1ccc(O)cc1 [Tyrosol]
NADH oxidase activity ([3]; inhibitor 10 μM): 3.4 ± 0.2 µmol/min/mg

Cc1cc(-c2ccccc2)c2ccc3c(-c4ccccc4)cc(C)nc3c2n1 [bathocuproine]
NADH oxidase activity, 24 min period ([3]; assayed with TFA and bathocuproine, FIG. 12): much reduced | dNOX activity after unfolding ([1]; trifluoroacetic acid plus bathocuproine, FIG. 30B): activity was lost

[2H]O[2H] [heavy water, Deuterium Oxide]
Period length of ENOX1 activity ([3]; assayed in heavy water, normal period 24 min): about 30 min

COc1ccc2[nH]cc(CCNC(C)=O)c2c1 [melatonin]
New maximum after melatonin addition (phasing of 24 min period) ([3]; 1 μM melatonin): 24 min

Trans-platinum
Effect on activity of recombinant ABP-20 [1]: without effect | NADH oxidase activity ([1]; addition 1 μM): 0.7 ± 0.1 µmol/min/mg

B1: None (Wild Type): recombinant auxin-activated ENOX protein ABP-20 (Prunus persica), SEQ ID NO: 8, unmodified (protein, listed as Prunus persica)
chain: MPQATMIFPILFTFFLLLSSSNAAVQDFCVADLAAPEGPAGFSCKKPASVKVNDFVFSGLGIAGNTSNIIKAAVTPAFVAQFPGVNGLGISIARLDLAVGGVVPFHTHPGASEVLIVAQGTICAGFVASDNTPYLQTLEKGDIMVFPQGLLLHFQVNGGEAPALAFASFGSASPGLQILDFALFKNDLPTEVIAQTTFLDAAQIKKLKGVLGGTN
modifications: DISULFID (29)..(44); BINDING (59)..(64); BINDING (106)..(108); BINDING (113)..(113); BINDING (150)..(152)
DTDP Interchange [4]: 0.9 ± 0.05 μmoles/min/mg protein | NADH Oxidation [5]: 0.8 ± 0.1 μmoles/min/mg protein

B2: G59A: ABP-20 with G59 replaced by alanine (adenine nucleotide binding motif) (protein, UniProt O04011 24-214, looked up, variant G59A)
Auxin-binding protein ABP20: AVQDFCVADLAAPEGPAGFSCKKPASVKVNDFVFSALGIAGNTSNIIKAAVTPAFVAQFPGVNGLGISIARLDLAVGGVVPFHTHPGASEVLIVAQGTICAGFVASDNTPYLQTLEKGDIMVFPQGLLHFQVNGGEAPALAFASFGSASPGLQILDFALFKNDLPTEVIAQTTFLDAAQIKKLKGVLGGTN
DTDP Interchange [4]: 0.07 ± 0.02 μmoles/min/mg protein | Effect of replacement on disulfide-thiol interchange [4]: without effect | Effect of replacement on NADH oxidation [5]: largely eliminated NADH oxidation | NADH Oxidation [5]: 0.06 ± 0.02 μmoles/min/mg protein

B3: H106A: ABP-20 putative copper site replacement (protein, UniProt O04011 24-214, looked up, variant H106A)
Auxin-binding protein ABP20: B2 Auxin-binding protein ABP20 with A36G, H83A
DTDP Interchange [4]: 0.02 ± 0.01 μmoles/min/mg protein | Effect of replacement on disulfide-thiol interchange [4]: near background | Effect of replacement on NADH oxidation [5]: near background | NADH Oxidation [5]: 0.04 ± 0.01 μmoles/min/mg protein

B4: H152A: ABP-20 putative copper site replacement (protein, UniProt O04011 24-214, looked up, variant H152A)
Auxin-binding protein ABP20: B2 Auxin-binding protein ABP20 with A36G, H129A
DTDP Interchange [4]: 0.02 ± 0.01 μmoles/min/mg protein | Effect of replacement on disulfide-thiol interchange [4]: near background | Effect of replacement on NADH oxidation [5]: near background | NADH Oxidation [5]: 0.03 ± 0.01 μmoles/min/mg protein

— US20160108414A1, “GROWTH-RELATED ENOX PROTEINS FROM PLANTS WITH YIELD ENHANCEMENT POTENTIAL, SEQUENCES AND METHODS” (Mor-NuCo Enterprises, Inc., priority 2013, published 2016)
